Results reported in PubChem BioAssay AID2060619 (Molecular Pharmacology Branch, DTP, NCI, 2025).
Where “and” joins values, the source holds several entries; their conditions need not be identical. Equal entries are not always repeated.

System: 323965-272-R-J2-PDC complex spheroid viability
Assay: Anticancer human tumor 323965-272-R-J2-PDC patient-derived pancreatic carcinoma cell line growth inhibition [CLK]
Conditions: for viability, T/C: stronger effect = lower value; active means viability on the fitted dose curve at most 10% of control; inactive means the rest
How it was run: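 Multi-cell-type spheroids combined patient-derived tumor cells with HUVEC endothelial cells and human mesenchymal stem cells. Paired agents were dosed in half-log steps down from about clinical Cmax, or from 10 microM where Cmax was unknown.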

[1] = curve of first compound, second compound 0.0316 µM
[2] = curve of first compound, second compound 0.1 µM
[3] = curve of first compound, second compound 0.316 µM
[4] = curve of first compound, second compound 1 µM
[5] = curve of first compound, second compound 3.16 µM
[6] = curve of first compound, second compound 10 µM
[7] = second compound 0.0316 µM, first compound 0.0316 µM
[8] = second compound 0.0316 µM, first compound 0.1 µM
[9] = second compound 0.0316 µM, first compound 0.316 µM
[10] = second compound 0.0316 µM, first compound 1 µM
[11] = second compound 0.0316 µM, first compound 3.16 µM
[12] = second compound 0.0316 µM, first compound 10 µM
[13] = second compound 0.1 µM, first compound 0.0316 µM
[14] = second compound 0.1 µM, first compound 0.1 µM
[15] = second compound 0.1 µM, first compound 0.316 µM
[16] = second compound 0.1 µM, first compound 1 µM
[17] = second compound 0.1 µM, first compound 3.16 µM
[18] = second compound 0.1 µM, first compound 10 µM
[19] = second compound 0.316 µM, first compound 0.0316 µM
[20] = second compound 0.316 µM, first compound 0.1 µM
[21] = second compound 0.316 µM, first compound 0.316 µM
[22] = second compound 0.316 µM, first compound 1 µM
[23] = second compound 0.316 µM, first compound 3.16 µM
[24] = second compound 0.316 µM, first compound 10 µM
[25] = second compound 1 µM, first compound 0.0316 µM
[26] = second compound 1 µM, first compound 0.1 µM
[27] = second compound 1 µM, first compound 0.316 µM
[28] = second compound 1 µM, first compound 1 µM
[29] = second compound 1 µM, first compound 3.16 µM
[30] = second compound 1 µM, first compound 10 µM
[31] = second compound 3.16 µM, first compound 0.0316 µM
[32] = second compound 3.16 µM, first compound 0.1 µM
[33] = second compound 3.16 µM, first compound 0.316 µM
[34] = second compound 3.16 µM, first compound 1 µM
[35] = second compound 3.16 µM, first compound 3.16 µM
[36] = second compound 3.16 µM, first compound 10 µM
[37] = second compound 10 µM, first compound 0.0316 µM
[38] = second compound 10 µM, first compound 0.1 µM
[39] = second compound 10 µM, first compound 0.316 µM
[40] = second compound 10 µM, first compound 1 µM
[41] = second compound 10 µM, first compound 3.16 µM
[42] = second compound 10 µM, first compound 10 µM
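Further: spheroids exposed to agents for seven days before readout.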
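Wherever viability, T/C is given: percent of DMSO vehicle control wells so 100% = untreated growth.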

O=C(c1cc(Cc2n[nH]c(=O)c3ccccc23)ccc1F)N1CCN(C(=O)C2CC2)CC1 + CN1CCN(c2cc(C(=O)Nc3cc4cc(-c5cnn(C)c5)ccc4cn3)ccn2)CC1
< 31.6 nM: IC50 [3] | IC50 [4] | IC50 [5] | IC50 [6]
> 10000 nM: IC50 [1] | IC50 [2]
active: viability, T/C [25] 4.07% | viability, T/C [26] 7.03% | viability, T/C [27] 3.28% | viability, T/C [28] 3.68% | viability, T/C [29] 3.67% | viability, T/C [30] 3.82% | viability, T/C [31] 5.15% | viability, T/C [32] 4.92% | viability, T/C [33] 4.78% | viability, T/C [34] 4.57% | viability, T/C [35] 5.09% | viability, T/C [36] 7.05% | viability, T/C [37] 4.14% | viability, T/C [38] 5.28% | viability, T/C [39] 5.97% | viability, T/C [40] 4.83% | viability, T/C [41] 4.72% | viability, T/C [42] 6.29%
inactive: viability, T/C [7] 91.1% | viability, T/C [8] 93.4% | viability, T/C [9] 87.4% | viability, T/C [10] 102% | viability, T/C [11] 93.5% | viability, T/C [12] 80.2% | viability, T/C [13] 70.6% | viability, T/C [14] 81.2% | viability, T/C [15] 68.7% | viability, T/C [16] 64.8% | viability, T/C [17] 65.6% | viability, T/C [18] 56.2% | viability, T/C [19] 23.2% | viability, T/C [20] 26.9% | viability, T/C [21] 22.6% | viability, T/C [22] 26.6% | viability, T/C [23] 24.9% | viability, T/C [24] 26.9%

CC(=O)O[C@H]1C(=O)[C@@]2(C)[C@H]([C@H](OC(=O)c3ccccc3)[C@]3(O)C[C@H](OC(=O)[C@H](O)[C@@H](NC(=O)c4ccccc4)c4ccccc4)C(C)=C1C3(C)C)[C@]1(OC(C)=O)CO[C@@H]1C[C@@H]2O + CNC(=O)c1ccc(Nc2nc(OC3CCCC3)c3c(-c4ccc5nc(C)oc5c4)c[nH]c3n2)c(OC)c1
> 10000 nM: IC50 [3] | IC50 [4]
< 31.6 nM: IC50 [1] | IC50 [2] | IC50 [5] | IC50 [6]
inactive: viability, T/C [7] 32.8% | viability, T/C [8] 40.5% | viability, T/C [9] 34.4% | viability, T/C [10] 33.2% | viability, T/C [11] 33.1% | viability, T/C [12] 36.9% | viability, T/C [13] 45.3% | viability, T/C [14] 42.7% | viability, T/C [15] 41.9% | viability, T/C [16] 37.9% | viability, T/C [17] 38.5% | viability, T/C [18] 38.5% | viability, T/C [19] 66.5% | viability, T/C [20] 68.7% | viability, T/C [21] 62.7% | viability, T/C [22] 67.7% | viability, T/C [23] 68.5% | viability, T/C [24] 76.1% | viability, T/C [25] 55.4% | viability, T/C [26] 60.1% | viability, T/C [27] 67.5% | viability, T/C [28] 63.2% | viability, T/C [29] 75.8% | viability, T/C [30] 74.5% | viability, T/C [31] 48.6% | viability, T/C [32] 53.5% | viability, T/C [33] 49.8% | viability, T/C [34] 56.1% | viability, T/C [35] 65.3% | viability, T/C [36] 60.4% | viability, T/C [37] 44.6% | viability, T/C [38] 49% | viability, T/C [39] 49.2% | viability, T/C [40] 55.8% | viability, T/C [41] 68.7% | viability, T/C [42] 60.4%

O=C(c1cc(Cc2n[nH]c(=O)c3ccccc23)ccc1F)N1CCN(C(=O)C2CC2)CC1 + CNC(=O)c1ccc(Nc2nc(OC3CCCC3)c3c(-c4ccc5nc(C)oc5c4)c[nH]c3n2)c(OC)c1
> 10000 nM: IC50 [1] | IC50 [2] | IC50 [3] | IC50 [4]
< 31.6 nM: IC50 [5] | IC50 [6]
inactive: viability, T/C [7] 129% | viability, T/C [8] 115% | viability, T/C [9] 107% | viability, T/C [10] 105% | viability, T/C [11] 117% | viability, T/C [12] 92% | viability, T/C [13] 101% | viability, T/C [14] 93.4% | viability, T/C [15] 94.4% | viability, T/C [16] 95.4% | viability, T/C [17] 88.6% | viability, T/C [18] 82.2% | viability, T/C [19] 64.3% | viability, T/C [20] 64.4% | viability, T/C [21] 57.9% | viability, T/C [22] 61.8% | viability, T/C [23] 73.2% | viability, T/C [24] 63.1% | viability, T/C [25] 55.4% | viability, T/C [26] 47.4% | viability, T/C [27] 51.5% | viability, T/C [28] 53.4% | viability, T/C [29] 51.3% | viability, T/C [30] 52.5% | viability, T/C [31] 44% | viability, T/C [32] 52.6% | viability, T/C [33] 46.8% | viability, T/C [34] 48.3% | viability, T/C [35] 40% | viability, T/C [36] 48.8% | viability, T/C [37] 44.3% | viability, T/C [38] 44.7% | viability, T/C [39] 44.5% | viability, T/C [40] 43.8% | viability, T/C [41] 46.7% | viability, T/C [42] 53.4%

CC(Nc1ccc2c(c1)OCCn1cc(N3C(=O)OCC3C(F)F)nc1-2)C(N)=O (configuration not stated) + CNC(=O)c1ccc(Nc2nc(OC3CCCC3)c3c(-c4ccc5nc(C)oc5c4)c[nH]c3n2)c(OC)c1
< 31.6 nM: IC50 [4] | IC50 [5] | IC50 [6]
> 10000 nM: IC50 [1] | IC50 [2]
inactive: viability, T/C [7] 110% | viability, T/C [8] 97.7% | viability, T/C [9] 80.4% | viability, T/C [10] 68.9% | viability, T/C [11] 64% | viability, T/C [12] 52% | viability, T/C [13] 89.7% | viability, T/C [14] 74.6% | viability, T/C [15] 73.9% | viability, T/C [16] 71.6% | viability, T/C [17] 58.4% | viability, T/C [18] 50.5% | viability, T/C [19] 63.6% | viability, T/C [20] 59.5% | viability, T/C [21] 48.5% | viability, T/C [22] 43.1% | viability, T/C [23] 39.9% | viability, T/C [24] 39.2% | viability, T/C [25] 43.4% | viability, T/C [26] 36.5% | viability, T/C [27] 33% | viability, T/C [28] 29.6% | viability, T/C [29] 30.1% | viability, T/C [30] 27.7% | viability, T/C [31] 34.8% | viability, T/C [32] 35.6% | viability, T/C [33] 30.7% | viability, T/C [34] 27.8% | viability, T/C [35] 30.7% | viability, T/C [36] 21.7% | viability, T/C [37] 42% | viability, T/C [38] 33.8% | viability, T/C [39] 28% | viability, T/C [40] 28.8% | viability, T/C [41] 28% | viability, T/C [42] 20.9%
290 nM: IC50 [3]

COc1ccc([C@@H](O)c2cc(-c3ncnc4cc(N5CCOCC5)ccc34)c(F)cc2Cl)nn1 + CNC(=O)c1ccc(Nc2nc(OC3CCCC3)c3c(-c4ccc5nc(C)oc5c4)c[nH]c3n2)c(OC)c1
1500 nM: IC50 [3]
9720 nM: IC50 [1]
> 10000 nM: IC50 [2]
inactive: viability, T/C [7] 99.2% | viability, T/C [8] 127% | viability, T/C [9] 110% | viability, T/C [10] 95.3% | viability, T/C [11] 79.2% | viability, T/C [12] 48.9% | viability, T/C [13] 85.9% | viability, T/C [14] 79.9% | viability, T/C [15] 77.7% | viability, T/C [16] 70.7% | viability, T/C [17] 63.8% | viability, T/C [18] 49.1% | viability, T/C [19] 62% | viability, T/C [20] 67% | viability, T/C [21] 49.9% | viability, T/C [22] 52.1% | viability, T/C [23] 49.4% | viability, T/C [24] 40.3% | viability, T/C [25] 49.2% | viability, T/C [26] 42.1% | viability, T/C [27] 42.6% | viability, T/C [28] 43% | viability, T/C [29] 40.3% | viability, T/C [30] 28.5% | viability, T/C [31] 48.7% | viability, T/C [32] 41.2% | viability, T/C [33] 43.7% | viability, T/C [34] 33.5% | viability, T/C [35] 32.1% | viability, T/C [36] 26.8% | viability, T/C [37] 41.4% | viability, T/C [38] 47.9% | viability, T/C [39] 35.7% | viability, T/C [40] 39.8% | viability, T/C [41] 31.2% | viability, T/C [42] 26.7%
< 31.6 nM: IC50 [4] | IC50 [5] | IC50 [6]

NC(=O)C(=Cn1cnc(-c2cc(C(F)(F)F)cc(C(F)(F)F)c2)n1)c1cncnc1
inactive: viability, T/C (compound 0.00949 µM) 97.4% and 105% | viability, T/C (compound 0.03 µM) 109% and 91.9% | viability, T/C (compound 0.0949 µM) 74.2% and 75.9% | viability, T/C (compound 0.3 µM) 64.3% and 66.8% | viability, T/C (compound 0.949 µM) 69.2% and 61.7% | viability, T/C (compound 3 µM) 38.3% and 28.5%
1690 nM and 1060 nM: IC50 (curve of compound)
